This is an account of results in publication PMC10313052, “Filarial DAF-12 sense the host serum to resume iL3 development during infection” (PLOS Pathogens, 2023).

The assay concerns the target T1, BmaDAF-12 (Brugia malayi, UniProt A0A4E9F2L4, R841H).
T1 sequence (A0A4E9F2L4 639-880 R841H): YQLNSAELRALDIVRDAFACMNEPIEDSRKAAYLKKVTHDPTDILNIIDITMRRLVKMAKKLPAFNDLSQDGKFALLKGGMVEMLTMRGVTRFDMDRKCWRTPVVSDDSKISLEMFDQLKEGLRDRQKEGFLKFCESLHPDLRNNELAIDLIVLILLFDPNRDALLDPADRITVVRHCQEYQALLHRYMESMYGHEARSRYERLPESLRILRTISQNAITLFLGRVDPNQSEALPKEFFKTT
Briefly: cell-based.

For the compound `CC(CCCC(C)C1CCC2C3=CCC4CC(=O)CCC4(C)C3CCC21C)C(=O)O` [Δ7-dafachronic acid, (25S)-Δ7-dafachronic acid], the concentration for a half-maximal effect (EC50) was determined as 1.8 nM.
